Experimental data published in patent US12473305B2, “Pyrazole boronic acid compound, pharmaceutical composition containing same, and uses thereof” (BEIJING SONGRUN PHARMACEUTICAL TECHNOLOGY CO., LTD., priority 2020, dated 2025).
Structures can show the parent of a compound that is named as a salt.

Columns and labels:
[1] = tested on: liver cancer cell line HepG2; test: CellTiter-Glo tumor cell proliferation, HepG2; type: cell-based, human
Method: (§1) The effect of compounds on tumor cell proliferation was detected by CellTiter-Glo method. Human melanoma cell line A375, non-small cell lung cancer cell line A549, human lung adenocarcinoma cell line H1299, colorectal cancer cell line HCT116, liver cancer cell line HepG2 and gastric cancer cell line MGC80-3 were cultured in vitro. The cells were collected after growing to the logarithmic growth phase, centrifuged at 1000 rpm for 5 min, and suspended in an appropriate amount of medium after discarding the supernatant, and the cell concentration was adjusted to 2×10^4/mL. The cell suspension was inoculated onto the 384-well cell culture plate, with 50 μL per well. After being cultured in a cell incubator (37° C., 5% CO2) for 24 h, 5 μL of drug diluted by the cell culture medium was added into each well for the treatment group. Each drug was provided in triplicate. After 72 h incubation in the incubator, 20 μL of CellTiter-Glo was added into each well, and the relative luminescence unit (RLU) was measured with Multimode Microplate Reader Varioskan Flash (Thermo Scientific, USA) after placed at 37° C. for 20 min, and compared with the RLU of the control group. SigmaPlot 10.0 software was used to calculate the inhibition rate and IC50 value.

[2] = tested on: colorectal cancer cell line HCT116; test: CellTiter-Glo tumor cell proliferation, HCT116; type: cell-based, human; details: Homo sapiens, HCT-116, 72 h; for inhibition at 1 µM / inhibition at 10 µM: read-out: Inhibition rate HCT116 (%)
Method: as §1

[3] = tested on: non-small cell lung cancer cell line A549; test: CellTiter-Glo tumor cell proliferation, A549; type: cell-based, human; details: Homo sapiens, A549, 72 h; for inhibition at 1 µM / inhibition at 10 µM: read-out: Inhibition rate A549 (%)
Method: as §1

[4] = tested on: Human melanoma cell line A375; test: CellTiter-Glo tumor cell proliferation, A375; type: cell-based; details: Homo sapiens, A-375, 72 h; for inhibition at 1 µM / inhibition at 10 µM: read-out: Inhibition rate A375 (%)
Method: as §1

[5] = tested on: human multiple myeloma RPMI 8226; test: Pharmacodynamic study, RPMI 8226 subcutaneous xenograft; type: in vivo, female NOD/SCID mice; details: positive control 0.5 mg/kg, twice a week, tail vein, day of the last administration
Method: The anti-tumor effect in vivo was studied by using the tumor animal model obtained by subcutaneous xenotransplantation of cell lines into female NOD/SCID mice (purchased from Sipeifu Biotechnology Co., Ltd.).
RPMI 8226 cells were subcutaneously inoculated into NOD/SCID mice, and human multiple myeloma subcutaneously transplanted tumor model was successfully established 9 days after inoculating the cells. The test was divided into vehicle (0.3 mL DMSO, 0.27 mL Tween-80, 2.43 mL normal saline) control group, compound 30 low-dose group (20 mg/kg), compound 30 medium-dose group (30 mg/kg), compound 30 high-dose group (40 mg/kg), compound 39 low-dose group (5 mg/kg), compound 39 medium-dose group (10 mg/kg), and compound 39 high-dose group (15 mg/kg), and bortezomib (API purchased from Yangtze River Pharmaceutical) was used as the positive control group (0.5 mg/kg); 5 tumor-bearing mice established above in each group were administered by tail vein twice a week for nine times in total. The long diameter a (mm) of the tumor and the short diameter b (mm) of the tumor perpendicular to the long diameter were measured with digital electronic caliper twice a week. The calculation formula of tumor volume was: TV=ab^2/2; and the calculation formula of relative tumor volume was: RTV=Vt/Vo, Vo was the tumor volume measured when the mice in each group were divided into cages and administered for the first time (d1), and Vt was the tumor volume measured at the last administration. The animals were sacrificed 31 days (d22) after inoculation of RPMI 8226 cells, and weighed. The tumor mass was dissected and weighed, and the tumor inhibition rate was calculated according to the following formula: […]

[6] = tested on: human liver cancer Bel7404; test: Antitumor activity in vivo, Bel7404 transplanted in nude mice; parameters: species or system male BALB/c athymic nude mice; details: 15 mg/kg
Method: In the test, the Bel7404 models of human liver cancer transplanted into 6-week-old male BALB/c athymic nude mice (purchased from Shanghai Slac Laboratory Animal Co., Ltd.) with body weight of 18-20 g were used to study the anti-tumor effect of compound 30. The dose of compound 30 was 50 mg/kg (30H group), 25 mg/kg (30 M group) and 12.5 mg/kg (30 L group), respectively, and was injected intravenously twice a week for 5 times in total; at the same time, 5-FU was used as the control drug, which was injected intraperitoneally twice a week for 7 times in total (5 mice/group for the compound 30 administration group, 5 mice in 5 FU administration group; 8 mice were used as the mock group). The long diameter a (mm) and the vertical short diameter b (mm) of the tumor were measured twice a week with a digital electronic caliper. The tumor volume calculation formula was TV=ab^2/2; and the relative tumor volume calculation formula was RTV=Vt/Vo, wherein Vo was the tumor volume measured on the first day of administration (d1), and Vt was the tumor volume at each measurement. On the 22nd day of administration (d22), the animals were sacrificed and weighed. The tumor mass was dissected and weighed. The tumor inhibition rate (tumor inhibitory rate, %) was calculated according to the following formula: […]

With “(R)-(3-methyl-1-(2-(5-phenyl-3-(3-((5-(4-phenylpiperazin-1-yl)pentyl)oxy)phenyl)-1H-pyrazol-1-acyl)acetamido)butyl)boronic acid dihydrochloride [Compound 42]” the IC50 ([1]; 72 h) was 121 nM.
“((1R)-1-(2-(3-(3-(2-(S,R-2,6-dimethylmorpholino)ethoxy)phenyl)-5-phenyl-1H-pyrazol-1-yl)acetamido)-3-methylbutyl)boronic acid hydrochloride [Compound 38]” showed an IC50 ([1]; 72 h) of 126 nM.
CC(C)C[C@H](NC(=O)Cn1nc(-c2cccc(OCCCCN3CCN(c4ccccc4)CC3)c2)cc1-c1ccccc1)B(O)O [Compound 41, (R)-(3-methyl-1-(2-(5-phenyl-3-(3-(4-(4-phenylpiperazin-1-yl)butoxy)phenyl)-1H-pyrazol-1-yl)acetamido)butyl)boronic acid dihydrochloride] showed an IC50 ([1]; Homo sapiens, HepG2, 72 h) of 123 nM.
In the case of CC(C)C[C@H](NC(=O)Cn1nc(-c2ccccc2OS(=O)(=O)c2ccccc2C(F)(F)F)cc1-c1ccccc1)B(O)O [Compound 3, (R)-(3-methyl-1-(2-(5-phenyl-3-(2-(((2-(trifluoromethyl)phenyl)sulfonyl)oxy)phenyl)-1H-pyrazol-1-yl)acetamido)butyl)boronic acid], the inhibition at 1 µM [2] is reported as 3%, the inhibition at 10 µM [2] is reported as 97.8% and the inhibition at 1 µM [3] is reported as 17.1%. It also gave an inhibition at 10 µM [3] of 60.6%, an inhibition at 1 µM [4] of 5.7% and an inhibition at 10 µM [4] of 98.2%.
CC(C)C[C@H](NC(=O)Cn1nc(-c2ccccc2OS(=O)(=O)c2cccc(Cl)c2)cc1-c1ccccc1)B(O)O [Compound 5, (R)-(1-(2-(3-(2-(((3-chlorophenyl)sulfonyl)oxy)phenyl)-5-phenyl-1H-pyrazol-1-yl)-acetamido)-3-methylbutyl)boronic acid] showed an inhibition at 1 µM [2] of 9%, an inhibition at 10 µM [2] of 97.3% and an inhibition at 1 µM [3] of 10.2%. The inhibition at 10 µM [3] was 67.2%, the inhibition at 1 µM [4] was 2.2% and the inhibition at 10 µM [4] was 97.9%.
CC(C)C[C@H](NC(=O)Cn1nc(-c2ccccc2OS(=O)(=O)c2cccc(C(F)(F)F)c2)cc1-c1ccc(OCc2ccccc2)cc1)B(O)O [Compound 23, (R)-(1-(2-(5-(4-(benzyloxy)phenyl)-3-(2-(((3-(trifluoromethyl)phenyl)sulfonyl)oxy)phenyl)-1H-pyrazol-1-yl)acetamido)-3-methylbutyl)boronic acid] showed an inhibition at 1 µM [2] of 2.6%, an inhibition at 10 µM [2] of 55.6% and an inhibition at 1 µM [3] of 7.4%. For the same compound, the inhibition at 10 µM [3] was 63.4%, the inhibition at 1 µM [4] was 5.7% and the inhibition at 10 µM [4] was 77%.
CC(C)C[C@H](NC(=O)[C@H](Cc1ccccc1)NC(=O)c1cnccn1)B(O)O [bortezomib, reference compound] was tested, and the “Relative tumor volume (x ± S)” value [5] was 5.17 ± 0.98, the “T/C (%)” value [5] was 55.41% and the “TGI (%)” value [5] was 44.59%. For the same compound, the “Tumor volume (x ± S)” value ([5]; in mm³ (unit assumed)) was 359.97 ± 65.13.
In the case of O=c1[nH]cc(F)c(=O)[nH]1 [Compound 5FU, 5-FU, reference compound], the “RTV (d22)” value ([6]; ip × 7) is reported as 2.78 ± 0.37, the “Animal weight (g) (After tumor removal)” value ([6]; ip × 7, d22) is reported as 23.14 ± 0.58 g and the Inhibition rate % ([6]; ip × 7, d22) is reported as 53.77%.
For CC(C)C[C@H](NC(=O)Cn1nc(-c2ccccc2OS(=O)(=O)c2ccccn2)cc1-c1ccccc1)B(O)O [Compound 10, (R)-(1-(2-(3-(2-((pyridin-2-ylsulfonyl)oxy)phenyl)-5-phenyl-1H-pyrazol-1-yl)acetamido)-3-methylbutyl)boronic acid], the inhibition at 1 µM [2] was 6.6%, the inhibition at 10 µM [2] was 98% and the inhibition at 1 µM [3] was 0.1%. The inhibition at 10 µM [3] was 72.9%, the inhibition at 1 µM [4] was 1.5% and the inhibition at 10 µM [4] was 98%.
In the case of CC(C)C[C@H](NC(=O)Cn1nc(-c2ccccc2OS(=O)(=O)c2cccc(C(F)(F)F)c2)cc1-c1ccc(Br)cc1)B(O)O [Compound 13, (R)-(1-(2-(5-(4-bromophenyl)-3-(2-(((3-(trifluoromethyl)phenyl)sulfonyl)oxy)phenyl)-1H-pyrazol-1-yl)acetamido)-3-methylbutyl)boronic acid], the inhibition at 1 µM [2] is reported as 8.2%, the inhibition at 10 µM [2] is reported as 3.3% and the inhibition at 1 µM [3] is reported as 4.5%. The inhibition at 10 µM [3] was 10.4%, the inhibition at 1 µM [4] was 8.1% and the inhibition at 10 µM [4] was 41.3%.
CC(C)C[C@H](NC(=O)Cn1nc(-c2cccc(O)c2)cc1-c1ccccc1)B(O)O [Compound 27, (R)-(1-(2-(3-(3-hydroxyphenyl)-5-phenyl-1H-pyrazol-1-yl)acetamido)3-methylbutyl)boronic acid] gave an IC50 ([2]; CellTiter-Glo) of 300 nM, an IC50 ([3]; CellTiter-Glo) of 680 nM and an IC50 ([4]; CellTiter-Glo) of 910 nM.
CC(C)C[C@H](NC(=O)Cn1nc(-c2ccccc2OS(=O)(=O)c2cccc(C(F)(F)F)c2)cc1-c1cccs1)B(O)O [Compound 25, (R)-(3-methyl-1-(2-(5-(thiophen-2-yl)-3-(2-(((3-(trifluoromethyl)phenyl)sulfonyl)oxy)phenyl)-1H-pyrazol-1-yl)acetamido)butyl)boronic acid] gave an inhibition at 1 µM [2] of 5.3%, an inhibition at 10 µM [2] of 97.2% and an inhibition at 1 µM [3] of 6.2%. The inhibition at 10 µM [3] was 71.2%, the inhibition at 1 µM [4] was 10.3% and the inhibition at 10 µM [4] was 97.7%.
CC(C)C[C@H](NC(=O)Cn1nc(-c2ccccc2OS(=O)(=O)c2cc(Cl)ccc2Cl)cc1-c1ccccc1)B(O)O [Compound 7, (R)-(1-(2-(3-(2-(((2,5-dichlorophenyl)sulfonyl)oxy)phenyl)-5-phenyl-1H-pyrazol-1-yl)-acetamido)-3-methylbutyl)boronic acid] gave an inhibition at 1 µM [2] of 3.5%, an inhibition at 10 µM [2] of 96.6% and an inhibition at 1 µM [3] of 16.5%. The inhibition at 10 µM [3] was 52%, the inhibition at 1 µM [4] was 3.7% and the inhibition at 10 µM [4] was 96%.
With CC(C)C[C@H](NC(=O)Cn1nc(-c2ccccc2OS(=O)(=O)c2cccc(F)c2)cc1-c1ccccc1)B(O)O [Compound 4, (R)-(1-(2-(3-(2-(((3-fluorophenyl)sulfonyl)oxy)phenyl)-5-phenyl-1H-pyrazol-1-yl)-acetamido)-3-methylbutyl)boronic acid] the inhibition at 1 µM [2] was 6.2%, the inhibition at 10 µM [2] was 97.6% and the inhibition at 1 µM [3] was 15%. The inhibition at 10 µM [3] was 69.3%, the inhibition at 1 µM [4] was 5.6% and the inhibition at 10 µM [4] was 98.2%.
In the case of CC(C)C[C@H](NC(=O)Cn1nc(-c2ccccc2OS(=O)(=O)c2cccc(C(F)(F)F)c2)cc1-c1ccc(F)cc1)B(O)O [Compound 16, (R)-(1-(2-(5-(4-fluorophenyl)-3-(2-(((3-(trifluoromethyl)phenyl)sulfonyl)oxy)phenyl)-1H-pyrazol-1-yl)acetamido)-3-methylbutyl)boronic acid], the inhibition at 1 µM [2] is reported as 8.3%, the inhibition at 10 µM [2] is reported as 93.8% and the inhibition at 1 µM [3] is reported as 1.6%. For the same compound, the inhibition at 10 µM [3] was 36.9%, the inhibition at 1 µM [4] was 14.2% and the inhibition at 10 µM [4] was 91.9%.
